The subject of data set [1] is Aspergillus fumigatus (ATCC strain 90906). As to the kind of experiment: Mold susceptibility test (MIC, CLSI M38A). The class given is cell-based. The conditions noted are these: Table 4, read-out at 48 hr, range tested 32 ug/ml to 0.03 ug/ml. An excerpt:
To further determine the antifungal activity of the compounds in the new formulation systems the inventors investigated the efficacy of the various agents against additional strains of mucor and Aspergillus (The Rhizomucor was a clinical isolate from a patient isolate) and the Aspergillus fumigatus (ATCC strain 90906) used was as previously described. Again, the susceptibility tests were set-up using the standardized test method (CLSI M38A). The used drugs were provided in the described final use-formulation VE-acetone/PEG/D5W. All drugs were diluted in RPMI-Mops medium: YeastOne, Sensititer (Lot 151416SA, expiration date in 2011).
Briefly, susceptibility tests were set-up using a standardized methodology (CLSI M38A). Drugs were diluted into RPMI-Mops medium (Yeast One Broth (Sensititer, product Y3462, Trek Diagnostic Systems, Cleveland, Ohio) Sensititer Lot number 151416SA—expiration date 2011). Two different strains of […] were tested, the standardized evaluation/read out was performed at 24 hours after the start of each culture. The tests were repeated twice and all MIC values (minimum inhibitory concentration) determined as an average of the two experiments.

The test system of data set [2] is Mucorales (Rhizopus lab strain). Nature of the data set: Mold susceptibility test (MIC). The conditions noted are these: Table 4, read-out at 48 hr, range tested 32 ug/ml to 0.03 ug/ml. Type of data set: cell-based.
Data set [3] is described as follows: Plasma clearance of Itraconazole and Posaconazole after IV injection in mice. The class given is in vivo, Swiss Webster mice. The protocol: To avoid analytical interference from endogenous plasma proteins in the chromatogram when assaying Itra and Posa in plasma samples, an extraction/purification step utilizing precipitation of protein material with acetonitrile was performed. Briefly, plasma proteins were precipitated by adding acetonitrile to a final volume ratio plasma:acetonitrile of 1:2. The mixture was vortexed for 30 seconds and centrifuged for 5 min. at 14,000 rpm in an Eppendorff microcentrifuge. The deproteinated supernatant, containing Itra, was injected into the HPLC to determine the drug concentration.

In data set [4] the test system is Aspergillus fumigatus [LAB-A from patient AF 040 511]. Nature of the data set: Mold susceptibility test (MIC, CLSI M38A). Type of data set: cell-based. The conditions noted are these: at 48 hr, in novel solvent.
Procedure: (§1) The range of drug concentrations tested was 150, 25, 12, 6, 3, 1.5, 0.75, 0.38, 0.19, 0.09, 0.04, and 0 (control) μg/mL. The susceptibility test was set-up using the standard method for filamentous fungi (CLSI, M38A standard). […] Zygomycete (Lab Z) inoculum was made 80% transmission in Saline. […] Posa was supplied at 2.0 mg/ml in vehicle. The Zygomycete was incubated at 33° C. for the first 24 hr to get growth established.
The subject of data set [5] is Rhizomucor sp. [Lab-Z is derived from patient 041511]. Nature of the data set: Mold susceptibility test (MIC, CLSI M38A). Type of data set: cell-based. The following applies: at 48 hr, in novel solvent.
Procedure: as §1

Values after ≈ are worked out from the molar mass of the structure shown. Values joined by “and” are separate entries in the source; they are usually repeats but may differ in a detail not shown here. Equal values may be shown once. Read-outs that look alike come from different tables or passages of the source.

As for `CCC(C)n1ncn(-c2ccc(N3CCN(c4ccc(OCC5COC(Cn6cncn6)(c6ccc(Cl)cc6Cl)O5)cc4)CC3)cc2)c1=O` (stereo not drawn) [Itra/D, itraconazole], the minimum inhibitory concentration (MIC) came out at 0.12 µg/mL (≈ 0.17 µM) in data set [1] and 0.6 µg/mL (≈ 0.85 µM) in data set [2].

Consider `CCC(C)n1ncn(-c2ccc(N3CCN(c4ccc(OCC5COC(Cn6cncn6)(c6ccc(Cl)cc6Cl)O5)cc4)CC3)cc2)c1=O` (stereo not drawn) [Itraconazole, itraconazole], for which the “plasma concentration, individual” value in data set [3] (5 mg/kg IV, mice, 10 min) was 3.86 µg/mL and 3.59 µg/mL and 2.13 µg/mL; in data set [3] (5 mg/kg IV, mice, 30 min), 1.93 µg/mL; in data set [3] (5 mg/kg IV, mice, 120 min), 0.77 µg/mL. Besides, the concentration at 10 min in data set [3] (Swiss Webster, mouse, plasma, intravenous, 5 mg/kg, 5 mg/kg IV, mice, 10 min, read-out: plasma concentration, individual) turned out to be 3340 ng/mL; in data set [3] (Swiss Webster, mouse, plasma, intravenous, 5 mg/kg, 5 mg/kg IV, mice, 10 min, read-out: plasma concentration, mean) it was 3230 ng/mL. Also, the concentration at 30 min in data set [3] (Swiss Webster, mouse, plasma, intravenous, 5 mg/kg, 5 mg/kg IV, mice, 30 min, read-out: plasma concentration, individual) stood at 1310 ng/mL; in data set [3] (Swiss Webster, mouse, plasma, intravenous, 5 mg/kg, 5 mg/kg IV, mice, 30 min, read-out: plasma concentration, mean), 1620 ng/mL. The concentration at 60 min in data set [3] (Swiss Webster, mouse, plasma, intravenous, 5 mg/kg, 5 mg/kg IV, mice, read-out: plasma concentration, individual) amounted to 770 ng/mL; in data set [3] (Swiss Webster, mouse, plasma, intravenous, 5 mg/kg, 5 mg/kg IV, mice, read-out: plasma concentration, mean), 770 ng/mL. For the same compound, the concentration at 120 min in data set [3] (Swiss Webster, mouse, plasma, intravenous, 5 mg/kg, 5 mg/kg IV, mice, 120 min, read-out: plasma concentration, individual) worked out at 640 ng/mL; in data set [3] (Swiss Webster, mouse, plasma, intravenous, 5 mg/kg, 5 mg/kg IV, mice, 120 min, read-out: plasma concentration, mean), 710 ng/mL.

`CC[C@@H]([C@H](C)O)n1ncn(-c2ccc(N3CCN(c4ccc(OC[C@@H]5CO[C@@](Cn6cncn6)(c6ccc(F)cc6F)C5)cc4)CC3)cc2)c1=O` [Posa/D, posaconazole]: the figures for the minimal inhibitory concentration (MIC) in data set [1] and in data set [2] were 0.03 µg/mL (≈ 0.0428 µM) and 0.12 µg/mL (≈ 0.171 µM), respectively.

`CC[C@@H]([C@H](C)O)n1ncn(-c2ccc(N3CCN(c4ccc(OC[C@@H]5CO[C@@](Cn6cncn6)(c6ccc(F)cc6F)C5)cc4)CC3)cc2)c1=O` [Posaconazole, posaconazole]: the plasma concentration in data set [3] (5 mg/kg BW in mice, from ten minutes to at least 2 hours after drug injection) lay within 3 to 5 µg/mL. Moreover, the “plasma concentration, individual” value in data set [3] (5 mg/kg IV, mice, 0.2 hours) is 3.43 µg/mL and 1.88 µg/mL and 4.59 µg/mL and 4.82 µg/mL; in data set [3] (5 mg/kg IV, mice, 2.0 hours), 4.85 µg/mL and 5.03 µg/mL and 4.21 µg/mL; in data set [3] (5 mg/kg IV, mice, 7.0 hours), 3.86 µg/mL; in data set [3] (5 mg/kg IV, mice, 24 hours) it was 0.03 µg/mL and 0.56 µg/mL and 0.47 µg/mL; in data set [3] (5 mg/kg IV, mice, 30 hours), 0.14 µg/mL and 0.29 µg/mL and 0.04 µg/mL. The concentration at 0.2 hours in data set [3] (Swiss Webster, mouse, plasma, intravenous, 5 mg/kg, 5 mg/kg IV, mice, 0.2 hours) turned out to be 3680 ng/mL. Also, the concentration at 2 hours in data set [3] (Swiss Webster, mouse, plasma, intravenous, 5 mg/kg, 5 mg/kg IV, mice, 2.0 hours, read-out: plasma concentration, individual) turned out to be 4990 ng/mL; in data set [3] (Swiss Webster, mouse, plasma, intravenous, 5 mg/kg, 5 mg/kg IV, mice, 2.0 hours, read-out: plasma concentration, mean), 4770 ng/mL. In addition, the concentration at 7 hours in data set [3] (Swiss Webster, mouse, plasma, intravenous, 5 mg/kg, 5 mg/kg IV, mice, 7.0 hours, read-out: plasma concentration, individual) worked out at 2610 ng/mL; in data set [3] (Swiss Webster, mouse, plasma, intravenous, 5 mg/kg, 5 mg/kg IV, mice, 7.0 hours, read-out: plasma concentration, mean), 3230 ng/mL. The compound further registered a concentration at 24 hours in data set [3] (Swiss Webster, mouse, plasma, intravenous, 5 mg/kg, 5 mg/kg IV, mice, 24 hours) of 350 ng/mL. The same compound displayed a concentration at 30 hours in data set [3] (Swiss Webster, mouse, plasma, intravenous, 5 mg/kg, 5 mg/kg IV, mice, 30 hours) of 160 ng/mL. The MIC in data set [4] and in data set [5] was 0.04 µg/mL (≈ 0.0571 µM) throughout.

Source of the values: patent US10028949B2, “Parenteral formulations of lipophilic pharmaceutical agents and methods for preparing and using the same” (priority 2011, dated 2018).
